Results: ChEMBL document CHEMBL1201862, “PubChem BioAssay data set” (2004)
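Growth conditions: 96-well plates. Treatment: test compound, 48 hours, 5 concentrations. Analysis: linear interpolation between bracketing concentrations; unreached endpoints set to highest concentration. At the GI50, growth is halved.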 Active and inactive are the calls of the source. No stated cut-off is given here; in the data, active = GI50 up to about 1.1 µM and inactive = higher.

Experiments:
Assay in all cases: inhibition of tumour cell growth, NCI panel, 48 h
BT-549 = tested on: BT-549
CAKI-1 = tested on: CAKI-1
COLO 205 = tested on: COLO 205
EKVX = tested on: EKVX
HCC 2998 = tested on: HCC 2998
HT-29 = tested on: HT-29
Hs-578T = tested on: Hs-578T
K562 = tested on: K562
KM12 = tested on: KM12
M14 = tested on: M14
MDA-N = tested on: MDA-N
NCI-H460 = tested on: NCI-H460
NCI-H522 = tested on: NCI-H522
OVCAR-5 = tested on: OVCAR-5
OVCAR-8 = tested on: OVCAR-8
RPMI-8226 = tested on: RPMI-8226
SF-539 = tested on: SF-539
SK-MEL-5 = tested on: SK-MEL-5
SNB-75 = tested on: SNB-75
U-251 = tested on: U-251

Structure (SMILES)	GI50 (BT-549)	GI50 (CAKI-1)	GI50 (COLO 205)	GI50 (EKVX)	GI50 (HCC 2998)	GI50 (HT-29)	GI50 (Hs-578T)	GI50 (K562)	GI50 (KM12)	GI50 (M14)	GI50 (MDA-N)	GI50 (NCI-H460)	GI50 (NCI-H522)	GI50 (OVCAR-5)	GI50 (OVCAR-8)	GI50 (RPMI-8226)	GI50 (SF-539)	GI50 (SK-MEL-5)	GI50 (SNB-75)	GI50 (U-251)
O=C(CCl)Nc1ccc(-c2nc3ccccc3s2)cc1	1.6 µM (inactive)	1.74 µM (inactive)	2.07 µM (inactive)	6.97 µM (inactive)	2.51 µM (inactive)	2.39 µM (inactive)	5.96 µM (inactive)	1.91 µM (inactive)	3.3 µM (inactive)	1.97 µM (inactive)	2.49 µM (inactive)	2.84 µM (inactive)	1.77 µM (inactive)	5.82 µM (inactive)	2.59 µM (inactive)	2.26 µM (inactive)	3.04 µM (inactive)	1.6 µM (inactive)	4.06 µM (inactive)	1.64 µM (inactive)
Cc1cc(S(=O)(=O)Nc2nc3ccccc3[nH]2)c(S)cc1Cl	> 100 µM (inactive)	45 µM (inactive)	82.2 µM (inactive)	53.6 µM (inactive)	98.9 µM (inactive)	> 100 µM (inactive)	70 µM (inactive)	48 µM (inactive)	37.5 µM (inactive)	> 100 µM (inactive)	> 100 µM (inactive)	32.7 µM (inactive)	97.3 µM (inactive)	> 100 µM (inactive)	> 100 µM (inactive)	34.6 µM (inactive)	> 100 µM (inactive)	35.2 µM (inactive)	> 100 µM (inactive)	24.1 µM (inactive)
CC(C)(C)[Si](C)(C)OCC1C=CC(n2cnc3c(N)ncnc32)O1 (stereo not given)	24.7 µM (inactive)	> 100 µM (inactive)	> 73.1 µM (inactive)	> 59.8 µM (inactive)	> 100 µM (inactive)	53.5 µM (inactive)	47.2 µM (inactive)	9.1 µM (inactive)	59.2 µM (inactive)	23.8 µM (inactive)	26.6 µM (inactive)	> 100 µM (inactive)	33.2 µM (inactive)	72.8 µM (inactive)	42.6 µM (inactive)	16.7 µM (inactive)	> 47.4 µM (inactive)	15.4 µM (inactive)	16.6 µM (inactive)	32.1 µM (inactive)
Nc1nc(Cl)cc(NCC2(CO)CCCC2)n1	> 100 µM (inactive)	> 100 µM (inactive)	> 100 µM (inactive)	> 100 µM (inactive)	> 100 µM (inactive)	> 100 µM (inactive)	> 100 µM (inactive)	> 100 µM (inactive)	> 100 µM (inactive)	> 100 µM (inactive)	> 100 µM (inactive)	> 100 µM (inactive)	49.1 µM (inactive)	> 100 µM (inactive)	> 100 µM (inactive)	> 100 µM (inactive)	> 100 µM (inactive)	80.4 µM (inactive)	85.7 µM (inactive)	> 100 µM (inactive)
CCOC(=O)c1cc2c(OC)cc(OC)cc2oc1=O	76 µM (inactive)	55.3 µM (inactive)	> 100 µM (inactive)	> 100 µM (inactive)	> 100 µM (inactive)	> 100 µM (inactive)	45.2 µM (inactive)	> 100 µM (inactive)	–	> 100 µM (inactive)	> 100 µM (inactive)	> 100 µM (inactive)	52.1 µM (inactive)	> 100 µM (inactive)	> 100 µM (inactive)	> 100 µM (inactive)	> 100 µM (inactive)	> 100 µM (inactive)	38.5 µM (inactive)	37.7 µM (inactive)
CC1(C)CC(=O)C(CCC(=O)/C=C/c2ccccc2)C(=O)C1	> 100 µM (inactive)	> 100 µM (inactive)	> 100 µM (inactive)	> 100 µM (inactive)	> 100 µM (inactive)	> 100 µM (inactive)	> 100 µM (inactive)	> 100 µM (inactive)	> 100 µM (inactive)	> 100 µM (inactive)	> 100 µM (inactive)	> 100 µM (inactive)	> 100 µM (inactive)	> 100 µM (inactive)	> 100 µM (inactive)	> 100 µM (inactive)	> 100 µM (inactive)	> 100 µM (inactive)	> 100 µM (inactive)	> 100 µM (inactive)
COc1cc2ccc1OCc1cccc(n1)COc1ccc(cc1OC)/C=N\CCNCCNCC/N=C\2	> 100 µM (inactive)	> 100 µM (inactive)	> 100 µM (inactive)	> 100 µM (inactive)	> 100 µM (inactive)	> 100 µM (inactive)	> 100 µM (inactive)	> 100 µM (inactive)	> 100 µM (inactive)	> 100 µM (inactive)	> 100 µM (inactive)	> 100 µM (inactive)	> 100 µM (inactive)	> 100 µM (inactive)	> 100 µM (inactive)	–	> 100 µM (inactive)	> 100 µM (inactive)	> 100 µM (inactive)	> 100 µM (inactive)
N#Cc1nc(-c2cccs2)oc1N	> 100 µM (inactive)	3.09 µM (inactive)	> 100 µM (inactive)	75 µM (inactive)	> 100 µM (inactive)	> 100 µM (inactive)	> 100 µM (inactive)	> 100 µM (inactive)	> 100 µM (inactive)	> 100 µM (inactive)	> 100 µM (inactive)	> 100 µM (inactive)	18.5 µM (inactive)	> 100 µM (inactive)	> 100 µM (inactive)	> 100 µM (inactive)	> 100 µM (inactive)	> 100 µM (inactive)	92.3 µM (inactive)	> 100 µM (inactive)
COc1cc(=O)n2c3ccccc3n(C)c2c1C#N	> 100 µM (inactive)	> 100 µM (inactive)	> 100 µM (inactive)	> 100 µM (inactive)	> 100 µM (inactive)	74.3 µM (inactive)	> 100 µM (inactive)	> 100 µM (inactive)	> 100 µM (inactive)	> 100 µM (inactive)	> 100 µM (inactive)	> 100 µM (inactive)	> 100 µM (inactive)	> 100 µM (inactive)	> 100 µM (inactive)	> 100 µM (inactive)	> 100 µM (inactive)	> 100 µM (inactive)	> 100 µM (inactive)	> 100 µM (inactive)
O=c1c2cc(I)ccc2nc(SCc2nncs2)n1Cc1ccccc1	> 100 µM (inactive)	2.15 µM (inactive)	20.2 µM (inactive)	7 µM (inactive)	16.4 µM (inactive)	31.8 µM (inactive)	16.3 µM (inactive)	16.7 µM (inactive)	11.8 µM (inactive)	9.06 µM (inactive)	23 µM (inactive)	7.62 µM (inactive)	4.78 µM (inactive)	99.5 µM (inactive)	36.5 µM (inactive)	6.76 µM (inactive)	22.8 µM (inactive)	6.71 µM (inactive)	19.1 µM (inactive)	16.9 µM (inactive)
CCCCn1c(C)c(C(=O)OCC)c2cc(OCc3ccc(C(=O)Nn4c(C)ccc4C)cc3)c(Br)cc21	> 100 µM (inactive)	> 100 µM (inactive)	> 100 µM (inactive)	> 100 µM (inactive)	> 100 µM (inactive)	> 100 µM (inactive)	> 100 µM (inactive)	> 100 µM (inactive)	> 100 µM (inactive)	> 100 µM (inactive)	> 100 µM (inactive)	> 100 µM (inactive)	> 100 µM (inactive)	> 100 µM (inactive)	> 100 µM (inactive)	> 100 µM (inactive)	> 100 µM (inactive)	> 100 µM (inactive)	> 100 µM (inactive)	> 100 µM (inactive)
CC(C)[C@H]1NC(=O)[C@H]2N=C(O[C@@H]2C)[C@@H]2CCCN2C(=O)[C@H](Cc2ccccc2)NC(=O)[C@@H]2COC(=N2)[C@@H](Cc2ccccc2)NC(=O)[C@@H]2COC1=N2	> 100 µM (inactive)	> 100 µM (inactive)	> 100 µM (inactive)	> 100 µM (inactive)	> 100 µM (inactive)	> 100 µM (inactive)	> 100 µM (inactive)	> 100 µM (inactive)	> 100 µM (inactive)	> 100 µM (inactive)	> 100 µM (inactive)	–	> 100 µM (inactive)	> 100 µM (inactive)	> 100 µM (inactive)	> 100 µM (inactive)	> 100 µM (inactive)	> 100 µM (inactive)	0.428 µM (active)	> 100 µM (inactive)
COc1cccc(C(C#N)NC23CC4CC(CC(C4)C2)C3)c1 (stereo not given)	> 100 µM (inactive)	> 100 µM (inactive)	> 100 µM (inactive)	85.5 µM (inactive)	> 100 µM (inactive)	> 100 µM (inactive)	> 100 µM (inactive)	> 100 µM (inactive)	> 100 µM (inactive)	> 100 µM (inactive)	> 100 µM (inactive)	> 100 µM (inactive)	> 100 µM (inactive)	> 100 µM (inactive)	> 100 µM (inactive)	> 100 µM (inactive)	> 100 µM (inactive)	> 100 µM (inactive)	> 100 µM (inactive)	> 100 µM (inactive)
O=C1NC2=NN=C(c3ccc(Br)cc3)CN2NC12c1ccccc1-c1ccccc12	> 100 µM (inactive)	> 100 µM (inactive)	> 100 µM (inactive)	> 100 µM (inactive)	> 100 µM (inactive)	> 100 µM (inactive)	37 µM (inactive)	> 100 µM (inactive)	–	> 100 µM (inactive)	> 100 µM (inactive)	> 100 µM (inactive)	> 100 µM (inactive)	> 100 µM (inactive)	> 100 µM (inactive)	–	> 100 µM (inactive)	> 100 µM (inactive)	> 100 µM (inactive)	> 100 µM (inactive)
